Measurements taken from article PMC4333385 (Nucleic Acids Research, 2014).

Assays:
E. coli RecQ helicase [1] = molecular target: T1, E. coli RecQ helicase (Escherichia coli, UniProt P15043); experiment: stopped-flow FRET binding kinetics; settings: association rate constant, Kd not given, SF50 buffer pH 7.5, 5 mM MgCl2, 25 °C, labelled compound
Description: stopped-flow FRET binding kinetics on E. coli RecQ helicase

E. coli RecQ helicase [2] = molecular target: T1, E. coli RecQ helicase; experiment: stopped-flow FRET binding kinetics (k-1/k1); settings: read-out: DNA-free RecQ
Description: stopped-flow FRET binding kinetics (k-1/k1) on E. coli RecQ helicase

E. coli RecQ helicase [3] = molecular target: T1, E. coli RecQ helicase; experiment: quenched-flow ATP hydrolysis, global fit; type: biochemical; settings: SF50 buffer pH 7.5, 5 mM MgCl2, 50 mM NaCl, 25 °C; gamma-32P-ATP; read-out: DNA-free RecQ
Description: quenched-flow ATP hydrolysis, global fit on E. coli RecQ helicase

T1 sequence (P15043 2-609): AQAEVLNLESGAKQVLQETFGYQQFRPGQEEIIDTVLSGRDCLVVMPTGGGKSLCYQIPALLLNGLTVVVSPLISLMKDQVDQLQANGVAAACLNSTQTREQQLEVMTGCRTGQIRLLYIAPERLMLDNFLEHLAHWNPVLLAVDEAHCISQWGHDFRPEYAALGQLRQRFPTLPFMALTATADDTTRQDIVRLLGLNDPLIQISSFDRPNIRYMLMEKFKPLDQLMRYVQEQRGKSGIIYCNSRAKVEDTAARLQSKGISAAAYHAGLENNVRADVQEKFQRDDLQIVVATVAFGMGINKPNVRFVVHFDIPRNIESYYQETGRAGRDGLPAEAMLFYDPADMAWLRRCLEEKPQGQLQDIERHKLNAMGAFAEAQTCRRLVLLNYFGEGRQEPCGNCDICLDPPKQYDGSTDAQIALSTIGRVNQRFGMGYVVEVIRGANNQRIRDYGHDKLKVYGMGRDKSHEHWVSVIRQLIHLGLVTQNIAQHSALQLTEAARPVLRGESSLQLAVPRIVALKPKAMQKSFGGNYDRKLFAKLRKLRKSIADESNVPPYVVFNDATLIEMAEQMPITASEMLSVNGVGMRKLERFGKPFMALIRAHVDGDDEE

## CNc1ccccc1C(=O)O[C@H]1C[C@H](n2cnc3c(N)ncnc32)O[C@@H]1COP(=O)(O)OP(=O)(O)O [mdADP]
E. coli RecQ helicase [1]
  DNA-free RecQ: 4.5 ± 0.5 µM⁻¹ s⁻¹

## CNc1ccccc1C(=O)O[C@H]1C[C@H](n2cnc3c(N)ncnc32)O[C@@H]1COP(=O)(O)OP(=O)(O)OP(=O)(O)O [mdATP, 3′-(N-methylanthraniloyl)-2′-deoxy-ATP]
E. coli RecQ helicase [2]
  Kd: 15 ± 2 µM

## Nc1ncnc2c1ncn2[C@@H]1O[C@H](COP(=O)(O)OP(=O)(O)OP(=O)(O)O)[C@@H](O)[C@H]1O [ATP]
E. coli RecQ helicase [3]
  Kd: 120 ± 30 µM
